Data on nine molecules can be found in ChEMBL document CHEMBL1152761, “Synthesis of novel substituted pyrazole-5-carbohydrazide hydrazone derivatives and discovery of a potent apoptosis inducer in A549 lung cancer cells” (Bioorg Med Chem, 2009).

Common to all, as to type: functional, cell-based
The subject of experiment [1] is A549. Briefly: Growth inhibition of human A549 cells after 48 hrs by MTT assay. As to conditions: for IC50: A549, 48 h. A general note: Tetrazolium dyes change colour on reduction, which living cells bring about.
Experiment [2] concerns A549. In words: Induction of apoptosis in human A549 cells assessed as cell shrinkage like morphological changes at 1 uM after 48 hrs by light microscopy.
In experiment [3] the test system is A549. In words: Induction of apoptosis in human A549 cells assessed as DNA fragmentation after 48 hrs by acridine orange staining.
In experiment [4] the test system is A549. Briefly: Induction of apoptosis in human A549 cells assessed as DNA fragmentation after 48 hrs by TUNEL assay.
In experiment [5] the test system is A549. In words: Induction of necrosis in human A549 cells assessed as LDH release at 0.1 uM after 24 to 48 hrs. For orientation: Release of lactate dehydrogenase indicates damage to the cell membrane.
The subject of experiment [6] is A549. In words: Induction of necrosis in human A549 cells assessed as LDH release at 0.5 uM after 24 to 48 hrs.
Experiment [7] deals with A549. In words: Induction of necrosis in human A549 cells assessed as LDH release at 1 uM after 24 to 48 hrs.

Calls of active or inactive are those of the source. No cut-off for these calls is given here.

On to `COc1ccc(-c2cc(C(=O)N/N=C(\C)c3cc(Cl)cc(Cl)c3O)n(Cc3ccc(C(C)(C)C)cc3)n2)cc1`, for which, in the experiment with A549 [1], the Activity result was “Dose-dependent effect” and it took 2.08 µM to reach half-maximal inhibition (IC50).
Turning to `C/C(=N\NC(=O)c1cc(-c2ccccc2)nn1Cc1ccc(C(C)(C)C)cc1)c1cc(Cl)ccc1O`, in the experiment with A549 [1], the Activity entry was “Dose-dependent effect” and it took 2.77 µM to reach half-maximal inhibition (IC50).
The corresponding values for `COc1ccc(-c2cc(C(=O)N/N=C(\C)c3cc(Cl)ccc3O)n(Cc3ccc(C(C)(C)C)cc3)n2)cc1` are “Dose-dependent effect” and 9.62 µM.
The corresponding values for `C/C(=N\NC(=O)c1cc(-c2ccc(Cl)cc2)nn1Cc1ccc(C(C)(C)C)cc1)c1cc(Cl)cc(Cl)c1O` are “Dose-dependent effect” and 7.9 µM.
The matching figures for `C/C(=N\NC(=O)c1cc(-c2ccccc2)nn1Cc1ccc(C(C)(C)C)cc1)c1cc(Cl)cc(Cl)c1O`: “Dose-dependent effect” and 3.17 µM.
`C/C(=N\NC(=O)c1cc(-c2ccccc2)nn1Cc1ccc(C(C)(C)C)cc1)c1cc(C)ccc1O`: in the experiment with A549 [1], the Activity result was “Dose-dependent effect” and the IC50 was found to be 6.1 µM.
`C/C(=N\NC(=O)c1cc(-c2ccc(Cl)cc2)nn1Cc1ccc(C(C)(C)C)cc1)c1cc(Cl)ccc1O`: the Activity entry in the experiment on A549 [1] was “Dose-dependent effect”. This molecule also yielded an IC50 in the experiment with A549 [1] of 0.28 µM. Also, the outcome in the experiment with A549 [2], in the experiment with A549 [3] and with A549 [4] was Active. Moreover, the result in the experiment with A549 [5], with A549 [6] and in the experiment on A549 [7] was inactive.
For `C/C(=N\NC(=O)c1cc(-c2ccc(Cl)cc2)nn1Cc1ccc(C(C)(C)C)cc1)c1cc(C)ccc1O`, in the experiment with A549 [1], the Activity result was “Dose-dependent effect” and it took 2.49 µM to reach half-maximal inhibition (IC50).
The matching figures for `COc1ccc(-c2cc(C(=O)N/N=C(\C)c3cc(C)ccc3O)n(Cc3ccc(C(C)(C)C)cc3)n2)cc1`: “Dose-dependent effect” and 10.4 µM.

Broadly, the IC50 is the concentration needed to halve the response being measured. The low end stands for greater potency, the high end for weaker potency.
